In patent publication US20090253771A1, “INHIBITION OF GLIOTOXIN” (priority 2006, published 2009):
Where a SMILES comes first, the peptide text is derived from it. The star is where a group is joined. Cbz = O=C(OCc1ccccc1)*; CH2F = FC*

Legend:
[1] = tested on: mouse embryonic fibroblasts (MEFs); test: Gliotoxin-induced apoptosis in MEFs: nuclear fragmentation (Hoechst 33342), PS exposure (annexin V-FITC) and PI uptake; format: cell-based; conditions: 1 μM GT, 4 h
Experimental: (§1) Gliotoxin (GT) was purified from Penicillium terlikowskii as described [Waring, 1988]. For apoptosis induction, 4×10^5 MEFs were incubated with different concentrations of GT or staurosporine (Sigma) for 4 h and apoptosis assays were performed as described below. In some cases the general caspase inhibitor Ac-ZVAD-fmk (Bachem) or the ROS scavengers N-acetylcysteine (NAC) (Sigma) or MnTBAP (Calbiochem) were added as described [Pardo, 2004]. To test the inhibitory potency of Ac-ZVAD-.fmk, MBL-2. Fas cells were incubated with anti-Fas mAb Jo-2 (1 μg/ml) for 24 h in the presence or absence of 100 μM of the caspase inhibitor and cell death was analysed by trypan blue exclusion. Nuclei were stained with 10 μg/ml of Hoechst 33342 (Molecular Probes).
(§2) Phosphatidylserine (PS) exposure and propidium iodide (PI) uptake was analysed by FACS or fluorescence microscopy as described [Pardo, 2004] using the annexin V-FITC kit from BD Pharmingen. The mitochondrial membrane potential was measured with the fluorescent probe 3,3′-dihexyloxacarbocyanine iodide (DiOC6(3), Molecular Probes) and ROS generation with 2-hydroxiethidine (2-HE, Molecular Probes) as described [Pardo, 2004].

[2] = tested on: mouse embryonic fibroblasts (MEFs); test: Mitochondrial membrane potential (DiOC6(3)) and ROS generation (2-HE) by FACS; format: cell-based; conditions: 1 μM GT, 4 h; for effect on GT-induced ROS production: 15 mM scavenger
Experimental: as §1, §2

[3] = tested on: mouse embryonic fibroblasts (MEFs); test: Cell death (trypan blue exclusion) and cell detachment by microscopic inspection; format: cell-based
Experimental: as §1

Bak = biological target: T1, Bak (Mus musculus, UniProt O08734); test: Conformational change of Bak (FACS, N-terminus-specific antibody); format: cell-based; conditions: 4 h; for effect on GT-induced N-terminal opening of Bak: 100 μM Z-VAD.fmk or 15 mM NAC or MnTBAP
T1 construct: endogenous in cells; host or cells: SV40-transformed mouse embryonic fibroblasts (wt, Bid-/-; Bak-/-xBax-/- as negative control)
T1 sequence (O08734 1-209): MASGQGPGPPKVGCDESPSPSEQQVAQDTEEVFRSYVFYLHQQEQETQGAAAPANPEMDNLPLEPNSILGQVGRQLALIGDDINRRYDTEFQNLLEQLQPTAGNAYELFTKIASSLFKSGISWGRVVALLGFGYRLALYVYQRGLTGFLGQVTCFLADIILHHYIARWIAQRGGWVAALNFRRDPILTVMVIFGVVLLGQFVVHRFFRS
Experimental: (§3) MEFs were fixed in 4% PFA, permeabilized with 0.1% saponin in PBS/5% fetal calf serum (FCS) and incubated with 2 μg/ml rabbit polyclonal anti-Bak (NT, Upstate Biotechnology) 5 μg/ml rabbit polyclonal anti-Bax (NT, Upstate Biotechnology) or 5 μg/ml rabbit purified IgG (control). After two washes with 0.1% saponin in PBS, the cells were incubated with anti rabbit-FITC antibody in 0.1% saponin/PBS/5% FCS, washed twice in 0.1% saponin/PBS, resuspended in 1% PFA/PBS and analysed by FACS with a FACScan (BD) and CellQuest® software.

caspase-3 = test: Caspase-3 activation (FACS, antibody against the active form); format: cell-based, mouse; conditions: 1 μM GT, 4 h; wt and Bax−/− MEFs
Experimental: Cells were fixed with 4% paraformaldehyde (PFA) and incubated with a monoclonal antibody against the active form of caspase-3 (clone C92605, BD Pharmingen). Following incubation with a FITC-labeled secondary antibody, the cells were analyzed by FACS as described [Pardo, 2004].

[4] = tested on: mouse embryonic fibroblasts (MEFs); test: Cytochrome c release on cells (FACS); format: cell-based; conditions: 1 μM GT, 4 h
Experimental: (§4) Cytochrome c release was quantified by FACS analysis as recently described [Waterhouse, 2003]. Briefly, 1×10^6 of MEFs were mildly permeabilized with 25 μg/ml digitonin plus 100 mM KCl on ice for 5 min. This lead to the cellular loss of cytosolic cytochrome c. Cells were washed once with cold PBS, fixed in 4% PFA, permeabilized with 0.05% saponin and 3% BSA and then incubated with the anti-cytochrome c mAb 6H2.B4 (BD Pharmingen) or mouse IgG isotype control (Jackson) followed by anti-mouse-FITC secondary antibody (Jackson). The cells were resuspended in 100 μl PFA in PBS and analysed by FACS with a FACScan (BD) and CellQuest® software. For the analysis of the nuclear translocation of AIF, cells were fixed, mounted on poly-L-lysine coverslides and stained with a rabbit polyclonal antiAIF antibody (Sigma) as described [Pardo, 2001]. Afterwards the cells were analysed by confocal microscopy using a Leica SP2 confocal microscope and Imaris® software.

[5] = tested on: mouse embryonic fibroblasts (MEFs); test: Nuclear translocation of AIF (confocal microscopy); format: cell-based; conditions: 1 μM GT, 4 h
Experimental: as §4

[6] = tested on: mitochondria isolated from MEFs or FDMs; test: Cytochrome c release from isolated mitochondria; format: biochemical, mouse
Experimental: 8×10^7 MEFs or FDMs were centrifuged and washed once in PBS. The cell pellets were resuspended in 500 μl MSH-Buffer (210 mM mannitol; 70 mM sucrose; 20 mM HEPES; 1 mM EDTA; pH 7,5; 100 μM PMSF; 400 ng/ml pepstatin; 10 μg/ml leupeptin; 10 μg/ml aprotinin and 5 μg/ml cytochalasin B). The resuspended cell pellet was incubated on ice for 15 min before the cells were broken by passaging 25 times through a 23-gauge needle. The lysate was centrifuged at 500×g for 5 min to remove cell debris and nuclei. A crude mitochondrial pellet was then obtained by centrifugation at 10,000×g for 15 min and resuspended in MSH-Buffer. The isolated mitochondria were incubated with different concentrations of GT (10 μM, 20 μM and 50 μM), or 40 nM of recombinant tBid as a positive control at 37° C. for 4 hr. Following incubation, the mitochondria were pelleted, and both, pellet and supernatant were tested for cytochrome c release by SDS-PAGE.

Fas-negative cells = test: GT-induced pro-apoptotic processes in Fas-negative cells (cell adhesion / cell death, neutral red); format: cell-based
Experimental: This pro-apoptotic activity may be inhibited by GT-inhibitors, e.g. anti-GT-antibodies. The degree of cell adhesion and/or cell death may be determined by standard methods. For example, the cells may be labelled with a suitable dye, e.g. neutral red, allowed to adhere and incubated subsequently with GT in the presence of a test compound. After an appropriate incubation time, the non-adherent cells may be removed and the remaining adherent cells and/or the removed cells may be determined. For example, the dye neutral red may be released from cells by […]/ethanol. Non-adherent cells equating with cell death may be quantitatively determined, e.g. with an optical detection method, preferably by measuring the absorbance at 540 nm according to standard methods, e.g. in a microplate reader.
Screening for antifungal agents capable of inhibiting the interaction between GT and Bak can be performed by means of the methylcholanthrene-induced cell line MC.Fas^−/− (date of deposition at DSMZ: 4 May 2006) stained with the vital dye Neutral Red. […] Cell loss equates with cell death resulting from GT-induced pro-apoptotic processes, and is quantified automatically by loss of absorbance at 540 nm using a microplate reader.

MBL-2.Fas cells = test: Anti-Fas mAb Jo-2 induced cell death (trypan blue exclusion), test of the caspase inhibitor; format: cell-based; conditions: 1 μg/ml Jo-2, 24 h; 100 μM inhibitor
Experimental: as §1

Bax = test: Conformational change of Bax (FACS, N-terminus-specific antibody); format: cell-based, mouse; conditions: staurosporine 1 and 5 μM, 4 h, MEFs
Experimental: as §3

[7] = 10, 20 or 50 μM GT, 4 h, 37° C.

CN1C(=O)[C@]23CC4=CC=C[C@H](O)[C@H]4N2C(=O)[C@@]1(CO)SS3 [GT, Gliotoxin]
apoptotic cells (PS exposed, annexin-V staining, without plasma membrane disruption) ([1]; wt MEFs): ~50%
nuclear fragmentation ([1]; wt MEFs, Hoechst 33342): nuclear fragmentation in the majority
number of annexin-V/PI positive cells vs mock treated cells ([1]; Bak−/− and Bak−/−×Bax−/− MEFs): did not
number of annexin-V/PI positive cells vs mock treated cells ([1]; wt, Bak−/− (so in the source) and Bid−/− MEFs): significantly increased
ROS production ([2]; wt, Bax−/− and Bid−/− MEFs): parallel increase
mitochondrial membrane potential (Δψm) ([2]; wt, Bax−/− and Bid−/− MEFs): significant reduction
GT-mediated cell death (trypan blue exclusion) ([3]; increasing amounts of GT, 4 h, Bak−/− and Bak−/−×Bax−/− MEFs, not wt or Bax−/−): significantly reduced
GT-induced loss of cell adherence ([3]; increasing amounts of GT, 4 h, Bax- and/or Bak-deficient MEFs vs wt): only marginally, if at all, diminished
N-terminal epitope exposure (conformational change) of Bak (Bak; 1 μM GT, wt MEFs): readily induce N-terminal epitope exposure in Bak
caspase-3 activation (caspase-3): significantly activated
mitochondrial cytochrome c ([4]; Bak−/− or Bak−/−×Bax−/− MEFs): retained
mitochondrial cytochrome c ([4]; wt and Bax−/− MEFs): reduced
localization of AIF ([5]; Bak−/− and Bak−/−×Bax−/− MEFs): retained most of the AIF in the mitochondria
cells with cytosolic localization and nuclear translocation of AIF ([5]; wt and Bax−/− MEFs): a high portion
cytochrome c release from isolated mitochondria [6, 7]: dose-dependent manner
cytochrome c release from isolated mitochondria compared with 40 nM recombinant tBid [6, 7]: as efficient as that induced by recombinant tBid
cytochrome c release from isolated mitochondria ([6]; mitochondria from Bak−/− or Bak−/−×Bax−/− MEFs or FDMs): absent
induction of pro-apoptotic processes resulting in loss of cell adhesion and cell death (Fas-negative cells): dose-dependent manner

O=C(O)c1ccc(/C2=C3\C=CC(=N3)/C(c3ccc(C(=O)O)cc3)=c3/cc/c4[n]3[Mn]([Cl])[n]3c2ccc3/C(c2ccc(C(=O)O)cc2)=C2/C=CC(=N2)\C=4c2ccc(C(=O)O)cc2)cc1 [MnTBAP, Mn(III) tetrakis(4-benzoic acid)porphirin chloride]
effect on GT-induced ROS production ([2]; wt MEFs): significantly reduced
effect on GT-induced N-terminal opening of Bak (Bak; wt MEFs, 1 μM GT): unaffected

CC(=O)N[C@@H](CS)C(=O)O [NAC, N-acetylcysteine]
effect on GT-induced PS exposure and plasma membrane permeability ([1]; wt MEFs, 15 mM NAC): abrogated
effect on GT-induced reduction of the mitochondrial Δψm ([2]; wt MEFs, 15 mM NAC): abrogated
effect on GT-induced ROS production ([2]; wt MEFs): significantly reduced
effect on GT-induced cell death (trypan blue staining) ([3]; wt MEFs, 1 μM GT, 4 h, NAC): totally inhibited
effect on GT-induced cell detachment ([3]; wt MEFs, 1 μM GT, 4 h, NAC): totally inhibited
effect on GT-induced N-terminal opening of Bak (Bak; wt MEFs, 1 μM GT): unaffected
effect on GT-induced cytochrome c release from mitochondria ([4]; wt MEFs, 15 mM NAC): greatly diminished
effect on GT-induced AIF release from mitochondria ([5]; wt MEFs, 15 mM NAC): greatly diminished

COC(=O)C[C@H](NC(=O)[C@H](C)NC(=O)[C@@H](NC(=O)OCc1ccccc1)C(C)C)C(=O)CF [Z-VAD.fmk] (Cbz-Val-Ala-Asp(OMe)-CH2F)
effect on GT-induced annexin-V/PI staining ([1]; wt MEFs, 100 μM Z-VAD.fmk): reduced
effect on loss of the mitochondrial Δψm in GT-treated cells ([2]; wt MEFs, 100 μM Z-VAD.fmk): did not prevent
effect on GT-induced cell death ([3]; wt MEFs, GT 4 h, Z-VAD.fmk): reduced
effect on GT-induced N-terminal opening of Bak (Bak; wt MEFs, 1 μM GT): unaffected
effect on GT-induced cytochrome c release ([4]; wt MEFs, 100 μM Z-VAD): not blocked
effect on GT-induced AIF release ([5]; wt MEFs, 100 μM Z-VAD): not blocked
effect on apoptosis induced by the anti-Fas antibody Jo-2 (MBL-2.Fas cells): blocked

CN[C@@H]1C[C@H]2O[C@@](C)([C@@H]1OC)n1c3ccccc3c3c4c(c5c6ccccc6n2c5c31)C(=O)NC4 [staurosporine]
activation of Bak (Bak; staurosporine 1 and 5 μM, MEFs): activates both Bax and Bak
N-terminal conformational change of Bax (Bax): led to the expected N-terminal opening of Bax
